Data published in paper PMC4070910, “Cathepsin S Signals via PAR2 and Generates a Novel Tethered Ligand Receptor Agonist” (PLoS ONE, 2014).
Entries after “also recorded” stand apart in the source; their conditions may differ.

How the values were obtained:
[1] = test system: cathepsin S in keratinocytes; conditions: cited from earlier work
Excerpt: We have identified a new peptide ligand generated by cathepsin S cleavage of PAR2. […] Our findings support a mechanism by which an N-terminal tethered ligand generated by cathepsin S cleavage might propagate PAR2 signaling in keratinocytes, or other target cells, surrounding a primary focus of inflammation. A possible scenario with respect to cutaneous inflammation could be as follows: IFN-γ, ...

[2] = test system: cathepsin S; test: Cathepsin S digestion of the human PAR2 N-terminal peptide (LC/MS/MS); assay type: biochemical; conditions: cathepsin S 1 µM, pH 7.0, 37°C, 20 minutes; MS/MS sequencing
Protocol: Recombinant human cathepsin S was produced as follows. The human cathepsin S proprotein coding region was isolated by PCR using the forward and reverse primers […] CCTG and […] and a template of plasmid DNA containing the entire coding sequence of human cathepsin S. The PCR product was cut with Nco I and Xho I, and cloned into the pTYB4 expression vector from New England Biolabs for expression in E.coli. Cells were grown in LB medium induced with 0.3 mM IPTG, harvested by centrifugation, resuspended in lysis buffer A (0.5 M NaCl, 0.05 M Tris, 5 mM EDTA, pH 8.0) and lysed in a French press. The lysate was centrifuged and the protein was found predominantly in inclusion bodies which were dissolved in buffer B (10 mM DTT and 8 M urea), and refolded in the presence of buffer B containing 0.7 M L-arginine, 0.01 M glutathione, 0.001 M glutathione disulfide, and 0.005 M EDTA as described. […] The specific activity of cathepsin S was assayed using Z-VVR-AMC in fluorimetric and Z-FR-pNA in colorimetric assays[22] and determined to be 10,000 mU/mg protein.
A peptide comprising the N-terminus of PAR2, […], was dissolved in 50 mM Tris, pH 7.0, 0.1 M NaCl, 0.1 mM EDTA, and 0.01% Tween-20 to a concentration of 100 mM. […] The reaction samples were analyzed by the Harvard Microchemistry & Proteomics Analysis Facility (Cambridge, MA). […]

[3] = test system: human PAR2; test: Fura-2 calcium imaging in HeLa cells transfected with PAR2 cDNA; assay type: cell-based; conditions: for Concentration-effect curve, calcium-dependent response (in words): peptides 1 nM - 1 mM, triplicate, Fura-2 ratiometric imaging
Protocol: Human PAR2 cDNA was cloned as an Xho I-Hind III fragment (1206 bp) into pcDNA3.1(−). 10 µg of DNA were diluted into 0.5 ml of DMEM and mixed with 0.5 ml of DMEM containing 10 µl of Lipofectamine 2000 transfection reagent and incubated at room temperature for 20 minutes. HeLa cells were grown to confluence, trypsinized and 1×10^6 cells were pelleted in a 15 ml tube by centrifugation at 1000 rpm for 5 minutes. The DMEM-Lipofectamine 2000-DNA mixture (1 ml) was added to the cell pellet, resuspended gently and incubated at room temperature for 20 minutes. Four ml of complete DMEM with 10% FBS were added to the tube, mixed by inverting the tube several times, plated into a 96-well glass bottom plate at 20,000 cells/well, and placed in a 37°C CO2 incubator. HeLa cells transfected with vector alone or salmon sperm DNA (shown in the figures) were plated as a control. The medium was aspirated two days after transfection. Fura-2 was used as a ratiometric calcium-sensitive indicator as follows. 100 µl of complete DMEM containing 2 µM of Fura-2 were added to each well and left at room temperature in the dark for 1 hr. Following loading with Fura-2, the medium was aspirated and replaced with 90 µl of HEPES-buffered saline (20 mM HEPES, 115 mM NaCl, 5.4 mM KCl, 2 mM CaCl2, 0.8 mM MgCl2, 13.8 mM glucose, pH 7.4).
Imaging was performed using a Zeiss Axiovert 200 M microscope platform equipped with a flipping filter wheel for ratiometric imaging. Axiovision software, version 4.6 was used for image analysis of the cells which were excited at 340 nm and 380 nm. Ten µl of peptide agonist were added at 20 seconds after the start of the excitation procedure. Images were taken every 5 seconds, including at zero time, during a 3-minute period or longer if required. The software later analyzed all images taken during each excitation period. Typically, ratiometric changes were measured in 10–20 cells in each image. An average of the fluorescence of the cells in each image was calculated and plotted against time in seconds.
HeLa cells transfected with PAR2 cDNA were subjected to ratiometric imaging as described above with PAR2 peptides, SLIGRL, KVDGTS, and SLIGKVDGTS in addition to the reverse peptides LRGILS and STGDVK at concentrations from 1 nM - 1 mM. Each of the concentration-dependent readings was performed in triplicate. Maximum intensities at each of the dilutions were calculated and plotted against concentration using GraphPad/PRISM software version 6.0 (Irvine, CA). Error bars represent +/−SEM.

[4] = test system: PKC (βII Ser660) phosphorylation in PAR2-transfected HeLa cells; test: Western blot for p-PKC (Ser660) in PAR2-transfected HeLa cells; assay type: cell-based, human; conditions: 10 minutes, room temperature; SLIGRL 10 µM, SLIGKVDGTS 10 µM, KVDGTS 100 µM, cathepsin S 1 µM
Protocol: HeLa cells were transfected with PAR2 plasmid DNA as described above. Untransfected HeLa cells were plated as a control. Forty-eight hours after transfection, cells were rinsed with PBS three times. Transfected HeLa cells were incubated with either SLIGRL (10 µM), SLIGKVDGTS (10 µM), KVDGTS (100 µM), or cathepsin S (1 µM) at room temperature for 10 minutes. Untransfected HeLa cells were treated with SLIGRL (10 µM) in a similar manner. A subset of transfected HeLa cells remained untreated and served as a negative control. After incubation, cells were harvested, pelleted and lysed by sequential freeze-thaw cycles. Cell lysates were centrifuged at 4°C for 15 minutes. Supernatants were collected and protein concentrations were determined by Bradford assay. Equal amounts of cell lysates were loaded onto NuPAGE Novex Bis-Tris mini gels, electrophoresed and transferred to nitrocellulose membranes using standard protocols. The blot was first probed with rabbit anti-phospho-PKC (βII Ser660) antibody (Cell Signalling Technology, Danvers, MA), and later reprobed with a mouse anti-actin antibody to identify the control actin band at 42 kDa. Primary antibodies were labeled with HRP-conjugated donkey anti-rabbit antibody and HRP-conjugated donkey anti-mouse antibody, respectively, followed by detection of the position of the antigen on the blot.

[5] = test system: PAR2; conditions: cited from earlier work; for PAR2 activation (in words): in vitro, plant proteases
Excerpt: PAR2 signaling has been implicated in the development of inflammatory and bowel diseases, asthma, itch and pain. The receptor is expressed on many types of cells including keratinocytes, sensory neurons, fibroblasts, endothelial cells, and inflammatory cells, [3]. Consistent with this broad expression, PAR2 is involved in numerous physiologic and pathophysiologic processes in response to both endogenous and exogenous proteases.

[6] = test system: human PAR2; test: IP1 (IP-One HTRF) assay in PAR2-transfected HeLa cells; assay type: cell-based; conditions: 1 hour, 37°C; KVDGTS 100 µM, SLIGRL 10 µM, cathepsin S 1 µM; KVDGTS and SLIGRL after subtracting baseline values; cathepsin S 'in this particular experiment'
Protocol: To determine the effect of PAR2 activation on Gq stimulation, we measured IP1, a downstream metabolite of IP3, using the IP-One HTRF assay from Cis Bio, Medford, MA. HeLa cells were transfected with salmon sperm DNA or PAR2 cDNA as described above, plated in 10 cm culture dishes and incubated at 37°C with 5% CO2. After 24 hours, the cells were trypsinized, counted, plated into 96-well plates at 80,000 cells/well and incubated for another 24 hours. The medium was replaced with a stimulation buffer containing LiCl, per the instructions of the manufacturer. Ligands, including cathepsin S (1 µM), KVDGTS (100 µM) and SLIGRL (10 µM) were added to wells and incubated at 37°C for 1 hour and IP1 levels determined. This assay was performed on multiple wells containing each ligand on three occasions. Error bars represent SEM.

[7] = test system: PAR2; conditions: cited from earlier work
Excerpt: Proteases can activate PARs but it has been hypothesized that they can also inactivate them. […] As the cathepsin S cleavage sites identified here are downstream o ...

## IFN-γ: mediator of inflammation
[1]
  induction of cathepsin S (in words): potent inducer of cathepsin S in keratinocytes

## KVDGTSHVTGKGVT
[2]
  cleavage points (in words): next most common sequence results in G at the P1 position

## LRGILS [reverse peptide of SLIGRL, negative control, reference compound]
[3]
  Concentration-effect curve, calcium-dependent response (in words): not active

## SLIGKVDGTS [decapeptide which encompasses SLIGKV and KVDGTS]
[4]
  PKC Ser660 phosphorylation (in words): weaker effect
[3]
  Concentration-effect curve, calcium-dependent response (in words): curves for SLIGRL and SLIGKVDGTS overlapped; also recorded: activity comparable to that of SLIGRL

## SLIGRL [positive control, reference compound]
[4]
  PKC Ser660 phosphorylation (in words): weaker effect
[5]; primary keratinocytes and various cell lines, no reference given
  intracellular calcium mobilization (in words): provokes transient intracellular calcium mobilization
[6]
  IP1 level: ~66 nM
[3]; PAR2-transfected HeLa, after cathepsin S, papain or trypsin, up to 60 minutes, room temperature
  calcium response to the substance as second agent after protease (in words): failed to induce a calcium response at any time up to 60 minutes
[3]
  Concentration-effect curve, calcium-dependent response (in words): curves for SLIGRL and SLIGKVDGTS overlapped
[3]; summary of these studies (discussion)
  concentration at which active/effective: 10 µM

## STGDVK [KVDGTS reverse peptide, reference compound]
[3]
  Concentration-effect curve, calcium-dependent response (in words): not active

## bromelain
[5]
  PAR2 activation (in words): supporting activation

## ficin
[5]
  PAR2 activation (in words): supporting activation

## trypsin [reference compound]
[7]
  PAR2 cleavage site preference (in words): cleave PAR2 primarily following arginine residues
[3]; PAR2-transfected HeLa, KVDGTS 100 µM, cathepsin S 2 µM, papain 2 µM, trypsin 10 nM, second agent after up to 60 minutes, room temperature
  effect as first agent on calcium response to second agent (in words): failed to induce a calcium response at any time up to 60 minutes
